In paper PMC9842534 (European Journal of Medicinal Chemistry, 2023):
Where a SMILES comes first, the peptide text is derived from it. Bridges are numbered along the chain shown (N, C = ends). [ ]: non-standard residue; d: D form. S5 = C=CCCC[C@](C)(N)C(=O)O

Molecular target: SARS-CoV-2 Spike RBD-ACE2 interaction (Severe acute respiratory syndrome coronavirus 2, UniProt P0DTC2)
Type: binding, SARS-CoV-2 / human

CC(C)C[C@@H]1NC(=O)[C@H](CC(=O)O)NC(=O)[C@H](CCC(=O)O)NC(=O)[C@@](C)(NC(=O)[C@H](CCC(=O)O)NC(=O)[C@@H](N)Cc2c[nH]cn2)CCC/C=C\CCC[C@@](C)(C(=O)N[C@@H](Cc2ccc(O)cc2)C(=O)N[C@@H](CCC(N)=O)C(N)=O)NC1=O [Compound 6] (H-HE[S5]EDL[S5]YQ-NH2; staple (Z) 3-7; N-terminus and C-terminus assumed)
inhibition of the spike RBD-ACE2 interaction (in words): significant inhibitory activity
